From ChEMBL document CHEMBL1201862, “PubChem BioAssay data set” (2004) come the findings set out here.

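Growth conditions: 96-well plates. Treatment: test compound, 48 hours, 5 concentrations. Analysis: linear interpolation between bracketing concentrations; unreached endpoints set to highest concentration. Abbreviation: GI50, concentration required for 50% inhibition of growth.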 Active and inactive are the calls of the source. Rule as the data show it: active = GI50 up to about 1.1 µM and inactive = higher. A value given as a limit tells only on which side of the number the result lay.

Among the test systems are 786-0; CCRF-CEM; HCT-116; HCT-15; HOP-62; HOP-92; K562; MDA-MB-231; MOLT-4; Malme-3M; NCI-H226; NCI-H23; OVCAR-8; SF-295; SF-539; SK-MEL-28; SK-MEL-5; SNB-19; UACC-257; SNB-75.
Assay in all cases: NCI tumour cell line growth inhibition, 48 h

Turning to `COc1ccc(/N=C2\C(=O)Nc3ccc(Br)cc32)cc1`, the GI50 in the assay with 786-0 was 16.3 µM (inactive); in the assay on CCRF-CEM, 13.4 µM (inactive); in the assay on HCT-116 it was 14.2 µM (inactive); in the assay on HCT-15 it was 14.3 µM; in the assay on HOP-62, 29.2 µM (inactive); in the assay with HOP-92, 18.2 µM (inactive). In addition, the GI50 was 8.67 µM (inactive) in the assay on K562; 13.9 µM (inactive) in the assay on MDA-MB-231; 16.6 µM (inactive) in the assay on MOLT-4; 19.8 µM (inactive) in the assay on Malme-3M; 16.2 µM (inactive) with NCI-H226; 18.2 µM (inactive) in the assay with NCI-H23. Further, the GI50 in the assay on OVCAR-8 is 14.9 µM (inactive); in the assay with SF-295, 22.8 µM (inactive); in the assay with SF-539 it was 16.5 µM (inactive); in the assay with SK-MEL-28, 31.3 µM (inactive); with SK-MEL-5, 11.2 µM (inactive); in the assay on SNB-19, 33.4 µM (inactive). For the same molecule, the GI50 with UACC-257 is 20.7 µM (inactive).

With `CC(O)CNC1=CC(=O)C(=O)c2ccccc21` (centres undefined), the GI50 is 17.6 µM (inactive) with 786-0; 37.9 µM (inactive) in the assay on CCRF-CEM; 16.1 µM (inactive) in the assay on HCT-116; 15 µM in the assay with HCT-15; 18.2 µM (inactive) in the assay on HOP-62; 19.5 µM (inactive) in the assay on HOP-92. For the same molecule, the GI50 in the assay with K562 is 28.9 µM (inactive); in the assay with MDA-MB-231, 22 µM (inactive); in the assay on MOLT-4, 23 µM (inactive); with Malme-3M it was 4.15 µM (inactive); in the assay with NCI-H23, 16.5 µM (inactive); in the assay with SF-295 it was 13.5 µM (inactive). In addition, the GI50 in the assay on SF-539 was 19.2 µM (inactive); with SK-MEL-28, 19 µM (inactive); with SK-MEL-5, 2.82 µM (inactive); with SNB-19 it was 16.7 µM (inactive); with SNB-75, 14.9 µM (inactive); in the assay on UACC-257, 16 µM (inactive).

Take `C=CCNC(=O)N1CC(C)C(=O)Nc2ccccc21` (centres undefined): the GI50 in the assay on 786-0 is > 100 µM (inactive); in the assay with CCRF-CEM, > 100 µM (inactive); in the assay on HCT-116, > 100 µM (inactive); with HCT-15, greater than 100 µM; in the assay with HOP-62, > 100 µM (inactive); in the assay with HOP-92, > 100 µM (inactive). The GI50 in the assay on K562, in the assay on MDA-MB-231, with MOLT-4, in the assay on Malme-3M, with NCI-H226 and with NCI-H23 was > 100 µM (inactive) in each case. The GI50 in the assay on OVCAR-8, in the assay on SF-295, with SF-539, in the assay on SK-MEL-28, in the assay on SK-MEL-5 and in the assay on SNB-19 was > 100 µM (inactive) in each case. For the same molecule, in the assay with UACC-257, the GI50 is > 100 µM (inactive).

On to `O=C1C(c2c(O)[nH]c3ccc(F)cc23)=Nc2ccccc21`, for which the GI50 with 786-0 is 4.85 µM (inactive); in the assay with CCRF-CEM, 28 µM (inactive); with HCT-116, > 100 µM (inactive); with HCT-15 it was greater than 100 µM; in the assay on HOP-62, 46.2 µM (inactive); in the assay with HOP-92, 10.9 µM (inactive). Besides, the GI50 was 44.2 µM (inactive) with K562; 12.9 µM (inactive) in the assay on MDA-MB-231; 21.1 µM (inactive) with MOLT-4; > 100 µM (inactive) in the assay on Malme-3M; > 100 µM (inactive) in the assay with NCI-H226; 73.1 µM (inactive) in the assay on NCI-H23. The GI50 was 8.13 µM (inactive) with OVCAR-8; 27.4 µM (inactive) in the assay on SF-295; > 100 µM (inactive) with SK-MEL-28; > 100 µM (inactive) in the assay with SK-MEL-5; 26.5 µM (inactive) with SNB-19; 3.21 µM (inactive) in the assay with SNB-75. Further, the GI50 in the assay with UACC-257 is > 100 µM (inactive).

On to `CCCCn1c(N)c(-c2nc3ccccc3o2)sc1=S`, for which the GI50 with 786-0 was 17.3 µM (inactive); in the assay with CCRF-CEM it was 32.8 µM (inactive); in the assay with HCT-116 it was 10.5 µM (inactive); in the assay with HCT-15, 15.4 µM; with HOP-62 it was 21.5 µM (inactive); with HOP-92, 45.5 µM (inactive). In addition, the GI50 was 22.3 µM (inactive) in the assay with K562; 16.8 µM (inactive) in the assay with MDA-MB-231; 43 µM (inactive) with MOLT-4; 16.3 µM (inactive) with Malme-3M; 15.7 µM (inactive) in the assay on NCI-H226; 15.6 µM (inactive) with NCI-H23. The GI50 in the assay with OVCAR-8 was 17.5 µM (inactive); in the assay with SF-295, 12.6 µM (inactive); in the assay on SF-539, 10.1 µM (inactive); with SK-MEL-28, 18.8 µM (inactive); in the assay with SK-MEL-5, 14 µM (inactive); with SNB-19, 41.3 µM (inactive). In the assay on UACC-257, the GI50 was 60.7 µM (inactive).

With `Cc1nc2c(c(N3CCN(C)CC3)n1)Cc1ccccc1-2`, the GI50 in the assay on 786-0 was 68.2 µM (inactive); in the assay on CCRF-CEM it was 65.2 µM (inactive); in the assay with HCT-116 it was 46.5 µM (inactive); with HCT-15, 32.5 µM; in the assay on HOP-92, 36.7 µM (inactive); with K562, 34.6 µM (inactive). The GI50 in the assay with MDA-MB-231 is 37.8 µM (inactive); in the assay on MOLT-4, > 10 µM (inactive); in the assay on Malme-3M it was 40.8 µM (inactive); with NCI-H226 it was 45.8 µM (inactive); in the assay on NCI-H23 it was 57.8 µM (inactive); with OVCAR-8, 54 µM (inactive). Besides, the GI50 in the assay on SF-295 was 42.4 µM (inactive); in the assay on SF-539 it was 84.7 µM (inactive); in the assay with SK-MEL-5, 51.2 µM (inactive); in the assay with SNB-19, 24.9 µM (inactive); with SNB-75, 91.2 µM (inactive); in the assay with UACC-257, 57 µM (inactive).

As to `CN(C)S(=O)(=O)c1ccc2c(c1)/C(=C1/Nc3ccccc3C1=O)C(=O)N2`, the GI50 is 16 µM (inactive) with 786-0; > 100 µM (inactive) in the assay on CCRF-CEM; 23.1 µM (inactive) in the assay on HCT-116; 87.9 µM in the assay with HCT-15; 15.7 µM (inactive) with HOP-62; 16.8 µM (inactive) with HOP-92. The GI50 in the assay with K562 was 34.8 µM (inactive); with MDA-MB-231, 17 µM (inactive); with MOLT-4 it was 14.1 µM (inactive); in the assay with Malme-3M, > 100 µM (inactive); in the assay with NCI-H226, 25.2 µM (inactive); with NCI-H23, 16.1 µM (inactive). Further, the GI50 is 32.5 µM (inactive) in the assay with OVCAR-8; 12.9 µM (inactive) with SF-295; > 100 µM (inactive) in the assay with SK-MEL-28; > 100 µM (inactive) with SK-MEL-5; 15.7 µM (inactive) in the assay on SNB-19; 0.0617 µM (active) in the assay with SNB-75. In addition, the GI50 in the assay on UACC-257 is > 100 µM (inactive).

For `COc1ccc(C(=O)C(Br)C(Br)C(=O)O)cc1` (centres undefined), the GI50 with 786-0 is 31.8 µM (inactive); with HCT-116, 20.8 µM (inactive); in the assay on HCT-15 it was 37.5 µM; in the assay on HOP-62 it was 36.6 µM (inactive); in the assay with HOP-92, > 100 µM (inactive); with K562 it was 29 µM (inactive). Also, the GI50 in the assay on MDA-MB-231 is > 100 µM (inactive); in the assay on MOLT-4, 14 µM (inactive); with Malme-3M, 21.4 µM (inactive); in the assay with NCI-H226 it was > 100 µM (inactive); with NCI-H23 it was 39.4 µM (inactive); in the assay on OVCAR-8, 32.7 µM (inactive). Further, the GI50 is > 100 µM (inactive) with SF-295; 21.4 µM (inactive) in the assay with SF-539; 40.4 µM (inactive) with SK-MEL-28; > 100 µM (inactive) in the assay on SK-MEL-5; 83.8 µM (inactive) with SNB-19; 67.3 µM (inactive) with SNB-75. The GI50 in the assay with UACC-257 was > 100 µM (inactive).

As to `N=c1c2sc3nc4ccccc4n3c2ncn1Cc1ccccc1`, the GI50 with 786-0 was > 100 µM (inactive); in the assay with CCRF-CEM it was > 100 µM (inactive); with HCT-116 it was > 100 µM (inactive); with HCT-15, greater than 100 µM; in the assay with HOP-62, > 100 µM (inactive); in the assay on HOP-92, > 100 µM (inactive). The GI50 with MDA-MB-231, with MOLT-4, in the assay on Malme-3M, in the assay with NCI-H226, in the assay with NCI-H23 and with OVCAR-8 was > 100 µM (inactive) throughout. Further, the GI50 in the assay with SF-295, with SF-539, with SK-MEL-28, in the assay with SK-MEL-5, with SNB-19 and in the assay on SNB-75 was > 100 µM (inactive) in each case. Moreover, in the assay on UACC-257, the GI50 is > 100 µM (inactive).

On to `Clc1ccc(NCc2nnc(COc3ccc(OCc4nnc(CNc5ccc(Cl)cc5)o4)c(Cl)c3)o2)cc1`, for which the GI50 in the assay on 786-0 is > 100 µM (inactive); in the assay on CCRF-CEM, 11.2 µM (inactive); in the assay on HCT-116 it was > 100 µM (inactive); with HCT-15, 43.6 µM; in the assay on HOP-62 it was > 100 µM (inactive); in the assay on HOP-92, 13.3 µM (inactive). Moreover, the GI50 in the assay on MDA-MB-231 was 15.7 µM (inactive); with Malme-3M, 51.1 µM (inactive); in the assay with NCI-H226 it was 23.3 µM (inactive); in the assay on NCI-H23 it was 44 µM (inactive); in the assay on OVCAR-8, 62.7 µM (inactive); with SF-295, 20.7 µM (inactive). The GI50 with SK-MEL-28 was 75.3 µM (inactive); in the assay on SK-MEL-5 it was 5.7 µM (inactive); in the assay with SNB-19, > 100 µM (inactive); in the assay on UACC-257, 43.1 µM (inactive).

For the molecule `O=C1c2cccnc2C(=O)C2C3C=CC(C3)C12` (centres undefined), the GI50 with 786-0 is 11.1 µM (inactive); in the assay on CCRF-CEM, 1.18 µM (inactive); with HCT-116, 3.85 µM (inactive); in the assay on HCT-15, 12 µM; in the assay on HOP-62 it was 6.68 µM (inactive); in the assay on HOP-92, 12.9 µM (inactive). In addition, the GI50 with K562 was 2.94 µM (inactive); in the assay on MDA-MB-231, 2.78 µM (inactive); in the assay on Malme-3M, 15.1 µM (inactive); in the assay with NCI-H226 it was 13 µM (inactive); with NCI-H23 it was 12.1 µM (inactive); in the assay with OVCAR-8, 5.48 µM (inactive). The GI50 with SF-295 is 12.6 µM (inactive); in the assay with SF-539 it was 2.4 µM (inactive); with SK-MEL-28 it was 15.2 µM (inactive); with SK-MEL-5 it was 10.8 µM (inactive); in the assay on SNB-19, 15 µM (inactive); with SNB-75 it was 12.6 µM (inactive). The GI50 with UACC-257 is 13.5 µM (inactive).
